Among the data in patent US12441691B2 (Cytokinetics, Inc., priority 2020, dated 2025) are AC1.4 values, retold here.

The test relates to rabbit skeletal myofibrils (fast skeletal myofibrils). Briefly: Activation of fast skeletal myofibrils (PUMA assay, AC1.4). It is filed as biochemical. As to conditions: calcium at pCa25, AC1.4 = concentration at which the compound increased the enzymatic activity. The gist of the method:
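Detergent-washed rabbit psoas myofibrils (~90% fast fibers), calcium set to give 25% of maximal rate (pCa25). ATPase followed by pyruvate kinase/lactate dehydrogenase-coupled NADH oxidation, absorbance at 340 nm. PM12 buffer: 12 mM PIPES, 2 mM MgCl2, 1 mM DTT, pH 6.8.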

In the case of `CC[C@H](C)[C@H]1C(=O)Nc2ccccc2CN1C(=O)Nc1cncc(C(N)=O)c1` [Compound 298, (S)-3-((S)-sec-butyl)-N-(5-carbamoylpyridin-3-yl)-2-oxo-1,2,3,5-tetrahydro-4H-benzo[e][1,4]diazepine-4-carboxamide], the AC1.4 was found to be 0.07 µM.

As for `CC[C@H](C)[C@H]1C(=O)Nc2ccccc2CN1C(=O)Nc1ccn(CCOC)n1` [Compound 299, (S)-3-((S)-sec-butyl)-N-(1-(2-methoxyethyl)-1H-pyrazol-3-yl)-2-oxo-1,2,3,5-tetrahydro-4H-benzo[e][1,4]diazepine-4-carboxamide], the AC1.4 was 0.18 µM.

Turning to `CC[C@H](C)[C@H]1C(=O)Nc2ccccc2CN1C(=O)N1CC(F)(F)C1` [Compound 300, (S)-3-((S)-sec-butyl)-4-(3,3-difluoroazetidine-1-carbonyl)-1,3,4,5-tetrahydro-2H-benzo[e][1,4]diazepin-2-one], the AC1.4 worked out at 0.42 µM.

As to `CC[C@H](C)[C@H]1C(=O)Nc2ccccc2CN1C(=O)NC1CCN(CCO)CC1` [Compound 301, (S)-3-((S)-sec-butyl)-N-(1-(2-hydroxyethyl)piperidin-4-yl)-2-oxo-1,2,3,5-tetrahydro-4H-benzo[e][1,4]diazepine-4-carboxamide], the AC1.4 amounted to 0.36 µM.

Regarding `CC[C@H](C)[C@H]1C(=O)Nc2ccccc2CN1C(=O)N1CCC[C@@H](CO)C1` [Compound 302, (S)-3-((S)-sec-butyl)-4-((R)-3-(hydroxymethyl)piperidine-1-carbonyl)-1,3,4,5-tetrahydro-2H-benzo[e][1,4]diazepin-2-one], the AC1.4 was 0.82 µM.

As for `CC[C@H](C)[C@H]1C(=O)Nc2ccccc2CN1C(=O)N1CCC[C@H](CO)C1` [Compound 303, (S)-3-((S)-sec-butyl)--4-((S)-3-(hydroxymethyl)piperidine-1-carbonyl)-1,3,4,5-tetrahydro-2H-benzo[e][1,4]diazepin-2-one], the AC1.4 stood at 0.89 µM.

Regarding `CC[C@H](C)[C@H]1C(=O)Nc2ccccc2CN1C(=O)N1CCCC(C(N)=O)C1` (stereo partly drawn) [Compound 304, 1-((S)-3-((S)-sec-butyl)-2-oxo-2,3,4,5-tetrahydro-1H-benzo[e][1,4]diazepine-4-carbonyl)piperidine-3-carboxamide], the AC1.4 was found to be 2.27 µM.

On to `CC[C@H](C)[C@H]1C(=O)Nc2ccccc2CN1C(=O)N1CCCC(C(N)=O)C1` (stereo partly drawn) [Compound 305, 1-((S)-3-((S)-sec-butyl)-2-oxo-2,3,4,5-tetrahydro-1H-benzo[e][1,4]diazepine-4-carbonyl)piperidine-3-carboxamide], for which the AC1.4 was 1.42 µM.

Turning to `CC[C@H](C)[C@H]1C(=O)Nc2ccccc2CN1C(=O)N1CC(F)C1` [Compound 306, (S)-3-((S)-sec-butyl)-4-(3-fluoroazetidine-1-carbonyl)-1,3,4,5-tetrahydro-2H-benzo[e][1,4]diazepin-2-one], the AC1.4 is 0.11 µM.

Turning to `CC[C@H](C)[C@H]1C(=O)Nc2ccccc2CN1C(=O)N[C@@H]1CCNC1` [Compound 307, (S)-3-((S)-sec-butyl)-2-oxo-N-((R)-pyrrolidin-3-yl)-1,2,3,5-tetrahydro-4H-benzo[e][1,4]diazepine-4-carboxamide], the AC1.4 was determined as 0.52 µM.

In the case of `CC[C@H](C)[C@H]1C(=O)Nc2ccccc2CN1C(=O)N[C@H]1CCNC1` [Compound 308, (S)-3-((S)-sec-butyl)-2-oxo-N-((S)-pyrrolidin-3-yl)-1,2,3,5-tetrahydro-4H-benzo[e][1,4]diazepine-4-carboxamide], the AC1.4 stood at 0.32 µM.

`COCCN1Cc2ccccc2NC(=O)[C@@H]1C1CCCCCC1` [Compound 309, (S)-3-cycloheptyl-4-(2-methoxyethyl)-1,3,4,5-tetrahydro-2H-benzo[e][1,4]diazepin-2-one]: the AC1.4 is 0.59 µM.

Regarding `CC[C@H](C)[C@H]1C(=O)Nc2ccccc2CN1CCOC` [Compound 310, (S)-3-((S)-sec-butyl)-4-(2-methoxyethyl)-1,3,4,5-tetrahydro-2H-benzo[e][1,4]diazepin-2-one], the AC1.4 was 4.17 µM.

As for `CC[C@H](C)[C@H]1C(=O)Nc2ccccc2CN1CC(=O)NC` [Compound 311, 2-((S)-3-((S)-sec-butyl)-2-oxo-1,2,3,4-tetrahydro-4H-benzo[e][1,4]diazepin-4-yl)-N-methylacetamide], the AC1.4 was determined as 2.60 µM.

Take `CC[C@H](C)[C@H]1C(=O)Nc2ccccc2CN1CCC(N)=O` [Compound 312, 3-((S)-3-((S)-sec-butyl)-2-oxo-1,2,3,5-tetrahydro-4H-benzo[e][1,4]diazepin-4-yl)propanamide]: the AC1.4 stood at 1.22 µM.

`CC[C@H](C)[C@H]1C(=O)Nc2ccccc2CN1CCC(=O)N(C)C` [Compound 313, 3-((S)-3-((S)-sec-butyl)-2-oxo-1,2,3,5-tetrahydro-4H-benzo[e][1,4]diazepin-4-yl)-N,N-dimethylpropanamide]: the AC1.4 came out at 1.22 µM.

As to `CC[C@H](C)[C@H]1C(=O)Nc2ccccc2CN1CCC(=O)NC` [Compound 314, 3-((S)-3-((S)-sec-butyl)-2-oxo-1,2,3,5-tetrahydro-4H-benzo[e][1,4]diazepin-4-yl)-N-methylpropanamide], the AC1.4 amounted to 0.72 µM.

For `CC[C@H](C)[C@H]1C(=O)Nc2ccccc2CN1CC1CCCC1` [Compound 315, (S)-3-((S)-sec-butyl)-4-(cyclopentylmethyl)-1,3,4,5-tetrahydro-2H-benzo[e][1,4]diazepin-2-one], the AC1.4 came out at 0.65 µM.

With `CC[C@H](C)[C@H]1C(=O)Nc2ccccc2CN1CC#N` [Compound 316, 2-((S)-3-((S)-sec-butyl)-2-oxo-1,2,3,5-tetrahydro-4H-benzo[e][1,4]diazepin-4-yl)acetonitrile], the AC1.4 came to 1.07 µM.

As to `CC[C@H](C)[C@H]1C(=O)Nc2ccccc2C(CO)N1C(N)=O` (stereo partly drawn) [Compound 317, (3S)-3-((S)-sec-butyl)-5-(hydroxymethyl)-2-oxo-1,2,3,5-tetrahydro-4H-benzo[e][1,4]diazepine-4-carboxamide], the AC1.4 amounted to 1.30 µM.

With `CC[C@H](C)[C@H]1C(=O)Nc2ccccc2C2COC(=O)N21` (stereo partly drawn) [Compound 318, (5S)-5-((S)-sec-Butyl)-7,11b-dihydro-1H,3H-benzo[f]oxazolo[3,4-d][1,4]diazepine-3,6(5H)-dione], the AC1.4 is 0.19 µM.

Turning to `CC[C@H](C)[C@H]1C(=O)Nc2ccccc2[C@@H](C)N1C(=O)c1cnn(C)c1` [Compound 319, (3S,5R)-3-((S)-sec-butyl)-5-methyl-4-(1-methyl-1H-pyrazole-4-carbonyl)-1,3,4,5-tetrahydro-2H-benzo[e][1,4]diazepin-2-one], the AC1.4 came to 0.80 µM.

For the compound `CC[C@H](C)[C@H]1C(=O)Nc2ccccc2[C@@H](C)N1C(N)=O` [Compound 320, (3S,5R)-3-((S)-sec-butyl)-5-methyl-2-oxo-1,2,3,5-tetrahydro-4H-benzo[e][1,4]diazepine-4-carboxamide], the AC1.4 was 1.25 µM.

As for `CC(C)[C@H]1C(=O)Nc2ccccc2CN1C(=O)c1ccn(C)n1` [Compound 322, (S)-3-isopropyl-4-(1-methyl-1H-pyrazole-3-carbonyl)-1,3,4,5-tetrahydro-2H-benzo[e][1,4]diazepin-2-one], the AC1.4 stood at 1.15 µM.

As for `CC(C)[C@H]1C(=O)Nc2ccccc2CN1c1nccs1` [Compound 323, (S)-3-isopropyl-4-(thiazol-2-yl)-1,3,4,5-tetrahydro-2H-benzo[e][1,4]diazepin-2-one], the AC1.4 was 0.66 µM.
